In data set [1] the target is Human plasma kallikrein (Homo sapiens (Human), UniProt P03952). The data set is described as follows: Kallikrein assay (plasma kallikrein, pKal). Type of data set: biochemical. The conditions noted are these: purified Human plasma kallikrein 0.5 nM, Acetyl-K-P-R-AFC substrate. As to the method: The effectiveness of a compound of the present invention as an inhibitor of Kallikrein can be determined using a relevant purified serine protease, and an appropriate synthetic substrate. The rate of hydrolysis of the chromogenic or fluorogenic substrate by the relevant serine protease was measured both in the absence and presence of compounds of the present invention. Assays were conducted at room temperature or at 37° C. […] A decrease in the rate of fluorescence change in the presence of inhibitor is indicative of enzyme inhibition. Such methods are known to one skilled in the art. […] Determinations were made using purified Human plasma kallikrein at a final concentration of 0.5 nM (Enzyme Research Laboratories) and the synthetic substrate, Acetyl-K—P—R-AFC (Sigma #C6608) at a concentration of […].
Chain of Human plasma kallikrein (P03952 391-638): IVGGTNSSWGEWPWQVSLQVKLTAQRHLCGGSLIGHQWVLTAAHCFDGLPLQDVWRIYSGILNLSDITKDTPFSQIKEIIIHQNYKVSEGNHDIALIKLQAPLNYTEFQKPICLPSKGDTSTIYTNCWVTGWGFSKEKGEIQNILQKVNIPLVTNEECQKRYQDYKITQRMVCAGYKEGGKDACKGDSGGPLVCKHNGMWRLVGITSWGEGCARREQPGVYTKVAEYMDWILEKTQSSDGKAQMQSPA
Chain of Human plasma kallikrein (P03952 20-390 partner): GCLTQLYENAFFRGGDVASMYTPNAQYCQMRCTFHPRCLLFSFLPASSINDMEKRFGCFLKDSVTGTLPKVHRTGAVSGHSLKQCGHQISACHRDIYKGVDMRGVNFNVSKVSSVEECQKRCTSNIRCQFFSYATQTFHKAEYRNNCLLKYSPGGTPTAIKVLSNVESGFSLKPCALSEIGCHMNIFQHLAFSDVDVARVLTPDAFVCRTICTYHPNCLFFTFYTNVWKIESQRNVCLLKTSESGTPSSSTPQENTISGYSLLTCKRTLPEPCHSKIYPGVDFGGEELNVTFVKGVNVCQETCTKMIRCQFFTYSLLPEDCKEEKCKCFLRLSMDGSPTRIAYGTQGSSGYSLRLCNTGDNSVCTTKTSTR
Activity assays were performed by diluting a stock solution of substrate at least tenfold to a final concentration ≤0.2 Km into a solution containing enzyme or enzyme equilibrated with inhibitor. Times required to achieve equilibration between enzyme and inhibitor were determined in control experiments. The reactions were performed under linear progress curve conditions and fluorescence increase measured at 405 Ex/510 Em nm. Values were converted to percent inhibition of the control reaction (after subtracting 100% Inhibition value). IC50 was determined by inflection point from a four parameter logistic curve fit. Ki was calculated using the Cheng Prusoff equation, Ki=IC50/(1+([S]/Km)).

Data set [2] concerns the target human tissue kallikrein (Homo sapiens (Human), UniProt P06870). Briefly: Inhibition of tissue kallikrein enzymatic activity (tKal). It counts as biochemical. The conditions noted are these: human tissue kallikrein 5 nM, N-acetyl-KPR-AFC substrate, 25° C. As to the method: Compounds were assayed with human tissue kallikrein (RayBiotech, Cat #228-10996 or Evotec, final concentration 5 nM) in 50 mM HEPES, 150 mM NaCl, 5 mM CaCl2, 0.1% PEG pH 7.4 at 25° C. in a Corning 3575 non-binding surface microplate. Compounds were tested in 10-point dose titrations starting at 166.67 uM with a 3-fold dilution series. Tissue kallikrein enzymatic activity was determined by measuring the rate of cleavage of N-acetyl-KPR-AFC substrate (Sigma, Cat #C6608, final concentration 100 uM) by continuously monitoring the fluorescence at 400/505 nm using a Tecan Safire plate-reader. The initial reaction rates (0 to 20 minutes) were used to determine percent inhibition. The % Inhibition for each data point was recalculated from the RFU/min data and analyzed using the log(inhibitor) vs. response four parameters equation with the GraphPad Prism software.

Data set [3] is described as follows: Dog screening IV/PO pharmacokinetics. It counts as in vivo. The conditions noted are these: male, plasma, mean residence time, IV/PO procedure. As to the method:
Plasma pharmacokinetic parameters for clearance, volume of distribution, half-life, mean residence time (MRT) and oral bioavailability were determined in dogs from oral administration and IV administration studies. 4 male dogs, typically weighing 8-12 kilograms, were fasted overnight prior to dosing. Compounds were prepared for oral and IV dosing by addition to a vehicle, depending on the dose used. For a typical preparation, 1 mg per mL (IV) or 1.5 mg per mL (oral) of test compound was added to vehicle comprised of 20% dimethyl sulfoxide (DMSO), 60% polyethylene glycol 400 (PEG400) and 20% water. IV formulation was administered to 2 dogs via the saphenous or cephalic vein, and oral dosing was administered to 2 dogs via oral gavage. Blood was collected by the cephalic or jugular vein, typically at predose, 2 min, 8 min, 15 min, 30 min, and 1, 2, 4, 6, 8 and 24 hr postdose for IV, and at predose, 15 min, 30 min, and 1, 2, 4, 6, 8, and 24 hr for oral dosing. Samples were collected in K2EDTA tubes, stored on ice, and centrifuged. Plasma was transferred to a micro titer plate and stored at −70° C. until analysis. Plasma samples were extracted using protein precipitation and analyzed by liquid chromatography separation followed by mass spec detection (LCMS/MS), using a standard curve for each compound. Plasma pharmacokinetic parameters were calculated for IV and oral dosing data by non-compartmental methods. Oral bioavailability was determined as the ratio of the dose-normalized plasma area under the curve (AUC) following oral dosing vs. IV dosing.

The nature of data set [4]: Dog cassette IV pharmacokinetics. Type of data set: in vivo. The conditions noted are these: male, plasma, mean residence time, cassette IV procedure. The protocol:
Plasma pharmacokinetic parameters for clearance, volume of distribution, half-life, and mean residence time (MRT) were determined in dogs from IV cassette administration studies. 2 male dogs, typically weighing 8-12 kilograms, were fasted overnight prior to dosing. Compounds were prepared for IV dosing by addition to a vehicle, depending on the dose used. For a typical preparation, 1 mg per mL (IV) of up to 5 test compounds were added to vehicle comprised of 20% dimethyl sulfoxide (DMSO), 60% polyethylene glycol 400 (PEG400) and 20% water. IV formulation was administered to 2 dogs via the saphenous or cephalic vein. Blood was collected by the cephalic or jugular vein, typically at predose, 2, 8, 15, 30 min, 1, 2, 4, 6, 8 and 24 hr postdose. Samples were collected in K2EDTA tubes, stored on ice, and centrifuged. Plasma was transferred to a micro titer plate and stored at −70° C. until analysis. Plasma samples were extracted using protein precipitation and analyzed by liquid chromatography separation followed by mass spec detection (LCMS/MS), using a standard curve for each compound. Plasma pharmacokinetic parameters were calculated by non-compartmental methods.

Chain of human tissue kallikrein (P06870 25-262): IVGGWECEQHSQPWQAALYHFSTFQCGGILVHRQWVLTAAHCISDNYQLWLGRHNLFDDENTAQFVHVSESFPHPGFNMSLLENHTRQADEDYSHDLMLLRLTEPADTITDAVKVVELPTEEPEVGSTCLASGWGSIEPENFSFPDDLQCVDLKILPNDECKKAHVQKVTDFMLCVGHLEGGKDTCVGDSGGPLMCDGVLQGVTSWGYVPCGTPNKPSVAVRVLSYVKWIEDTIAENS

In general, IC50 refers to the concentration at which inhibition is half-maximal. The low end stands for greater potency, the high end for weaker potency. As a reminder, the MRT is a mean duration of stay, worked out from the concentration-time curve. Consider `COC(=O)Nc1ccc2c(c1)NC(=O)C(C)(C)CCC[C@H](c1ccc(-c3cc(F)ccc3-n3cc(C(F)(F)F)cn3)c[n+]1[O-])c1nc-2c(C)[nH]1` [Example 2, (R.Z)-5-(5-fluoro-2-(4-(trifluoromethyl)-1H-pyrazol-1-yl)phenyl)-2-(2^4-((methoxycarbonyl)amino)-1^5,5,5-trimethyl-4-oxo-1^1H-3-aza-1(4,2)-imidazola-2(1,2)-benzenacyclononaphane-9-yl)pyridine 1-oxide], for which the half-maximal inhibitory concentration (IC50) amounted to 1080 nM in data set [1] and 90000 nM in data set [2]. In data set [3], this compound returned an MRT of 11 h.
On to `COC(=O)Nc1ccc2c(c1)NC(=O)C(C)(C)CCC[C@H](c1ccc(-c3cc(Cl)ccc3-n3cc(C(F)(F)F)cn3)c[n+]1[O-])c1nc-2c(C)[nH]1` [Example 3], for which the IC50 in data set [1] was 42 nM; in data set [2], > 167000 nM. The same compound yielded an MRT in data set [4] of 10 h.
In data set [1], `COC(=O)Nc1ccc2c(c1)NC(=O)C(C)(C)CCC[C@H](c1ccc(-c3cc(Cl)cnc3OC(F)F)c[n+]1[O-])c1nc-2c(C)[nH]1` [Example 6, (R,Z)-5′-chloro-2′-(difluoromethoxy)-6-(2^4-((methoxycarbonyl)amino)-1^5,5,5-trimethyl-4-oxo-1^1H-3-aza-1(4,2)-imidazola-2(1,2)-benzenacyclononaphane-9-yl)-[3,3′-bipyridine]1-oxide] had an IC50 of 443 nM. This compound also yielded an MRT in data set [3] of 14.5 h.
As to `COC(=O)Nc1ccc2c(c1)NC(=O)C(C)(C)CCC[C@H](c1ccc(-c3cc(F)ccc3-c3cnn(C(F)(F)F)c3)c[n+]1[O-])c1nc-2c(C)[nH]1` [Example 5, (R,Z)-5-(5-fluoro-2-(1-(trifluoromethyl)-1H-pyrazol-4-yl)phenyl)-2-(2^4-((methoxycarbonyl)amino)-1^5,5,5-trimethyl-4-oxo-1^1H-3-aza-1(4,2)-imidazola-2(1,2)-benzenacyclononaphane-9-yl)pyridine 1-oxide], the IC50 was 371 nM in data set [1] and > 167000 nM in data set [2]. For the same compound, the MRT in data set [3] is 10 h.
Regarding `COC(=O)Nc1ccc2c(c1)NC(=O)C(C)(C)CCC[C@H](c1ccc(-c3cc(Cl)ccc3-n3cc(C(F)F)cn3)c[n+]1[O-])c1nc-2c(C)[nH]1` [Example 4, (R,Z)-5-(5-chloro-2-(4-(difluoromethyl)-1H-pyrazol-1-yl)phenyl)-2-(2^4-((methoxycarbonyl)amino)-1^5,5,5-trimethyl-4-oxo-1^1H-3-aza-1(4,2)-imidazola-2(1,2)-benzenacyclononaphane-9-yl)pyridine 1-oxide], the IC50 in data set [1] was 46 nM; in data set [2] it was > 167000 nM. The compound also registered an MRT in data set [3] of 8.7 h.
For the compound `COC(=O)Nc1ccc2c(c1)NC(=O)C(C)(C)CCC[C@H](c1ccc(-c3c(-n4cc(C(F)(F)F)cn4)ccc(F)c3F)c[n+]1[O-])c1nc-2c(C)[nH]1` [Example 1, (R,Z)-5-(2,3-difluoro-6-(4-(trifluoromethyl)-1H-pyrazol-1-yl)phenyl)-2-(2^4-((methoxycarbonyl)amino)-1^5,5,5-trimethyl-4-oxo-1^1H-3-aza-1(4,2)-imidazola-2 (1,2)-benzenacyclononaphane-9-yl)pyridine 1-oxide], the results for the IC50 in data set [1] and in data set [2] were 480 nM and > 167000 nM, respectively. In data set [3], this compound had a mean residence time (MRT) of 10 h.

The values above are taken from patent US12344616B2, “Factor XIa inhibitors” (Merck Sharp & Dohme LLC, priority 2018, dated 2025).
